Experiments:
[1] = biological target: T1, human Na+/H+ exchanger (subtype 3; NHE-3) (Homo sapiens, UniProt P48764); assay: Inhibition of the NHE antiport subtype 3: intracellular pH recovery after acid load (BCECF) in stably transfected LAP1 cells; assay type: cell-based; details: human NHE-3, pH recovery in % of maximum recovery, read-out: Residual activity at 30 μM
T1 construct: expressed in transfected cells; host or cells: LAP1 cells (NHE-deficient), stably transfected with pMAMneo plasmid
T1 sequence (P48764 26-834): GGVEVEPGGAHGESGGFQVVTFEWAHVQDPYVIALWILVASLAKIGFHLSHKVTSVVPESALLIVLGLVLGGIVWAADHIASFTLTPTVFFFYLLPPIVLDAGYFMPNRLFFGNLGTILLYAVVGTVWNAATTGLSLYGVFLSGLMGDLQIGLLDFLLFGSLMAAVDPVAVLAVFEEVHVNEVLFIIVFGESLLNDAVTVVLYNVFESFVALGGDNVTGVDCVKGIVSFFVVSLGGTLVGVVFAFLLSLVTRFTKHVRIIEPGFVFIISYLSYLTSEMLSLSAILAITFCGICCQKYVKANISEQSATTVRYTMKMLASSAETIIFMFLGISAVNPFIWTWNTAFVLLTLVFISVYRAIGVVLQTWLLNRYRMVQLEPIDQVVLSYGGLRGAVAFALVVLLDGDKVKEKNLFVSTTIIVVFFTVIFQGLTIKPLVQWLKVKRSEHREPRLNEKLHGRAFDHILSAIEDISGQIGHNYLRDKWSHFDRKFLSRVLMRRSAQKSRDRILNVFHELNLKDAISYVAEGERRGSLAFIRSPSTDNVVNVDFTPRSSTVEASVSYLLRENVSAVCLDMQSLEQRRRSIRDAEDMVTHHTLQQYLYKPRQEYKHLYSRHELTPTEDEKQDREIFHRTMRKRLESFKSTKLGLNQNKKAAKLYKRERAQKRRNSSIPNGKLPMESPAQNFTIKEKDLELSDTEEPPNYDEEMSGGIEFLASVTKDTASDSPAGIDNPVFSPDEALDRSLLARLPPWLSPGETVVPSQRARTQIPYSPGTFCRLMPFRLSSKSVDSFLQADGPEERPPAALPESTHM
Description: The absorption of water from the gall bladder is inhibited by inhibition of the apical NHE antiport of the subtype 3 of the gall bladder epithelium, which results in a dilute bile fluid. This dilute bile fluid prevents gallstone formation and, if gallstones are already present, brings about their dissolution. The inhibition of the NHE antiport of the subtype 3 by the compounds of the formula I according to the invention was determined by means of the following test.
Most of the molecular bilology techniques follow protocols from the works “Current Protocols in Molecular Biology (eds. Ausubel, F. M., Brent, R., Kingston, R. E., Moore, D. D., Seidman, J. G., Smith, J. A. and Struhl, K.; John Wiley & Sons)” and “Molecular Cloning: A Laboratory Manual (Sambrock, J., Fritsch, E. F. und Maniatis, T.; Cold Spring Harbor Laboratory Press (1989))”. […] In this test, the increase in the intracellular pH (pHi) after an acidification was determined which commenced with functional NHE even under bicarbonate-free conditions. For this, the pHi was determined using the pH-sensitive fluorescent dye BCECF (Calbiochem, the precursor BCECF-AM is employed). […] The BCECF fluorescence was determined in a “ratio fluorescence spectrometer” (Photon Technology International, South Brunswick, N.J., USA) at excitation wavelengths of 505 and 440 nm and an emission wavelength of 535 nm and converted into the pHi by means of calibration curves. […]

SMILES	remaining activity at 30 µM [1] [%]	melting point
C/C(=C\c1cc(F)c(Oc2ccc(CC(=O)NCCO[C@H]3CC[C@@]4(C)[C@@H](C3)C[C@@H](O)[C@@H]3[C@@H]4C[C@H](O)[C@]4(C)[C@@H]([C@H](C)CCC(=O)O)CC[C@@H]34)cc2)c(F)c1)C(=O)N=C(N)N (stereo in doubt) [Example 1, 4-{3-[2-(2-{4-[2,6-Difluoro-4-(3-guanidino-2-methyl-3-oxopropenyl)phenoxy]phenyl}acetylamino)ethoxy]-7,12-dihydroxy-10,13-dimethylhexadecahydro-cyclopenta[a]phenanthren-17-yl}pentanoic acid]	17	
C/C(=C\C(=O)N=C(N)N)c1cc(F)c(Oc2ccc(CC(=O)N[C@H]3CC[C@@]4(C)[C@@H](C3)C[C@@H](O)[C@@H]3[C@@H]4C[C@H](O)[C@]4(C)[C@@H]([C@H](C)CCC(=O)O)CC[C@@H]34)cc2)c(F)c1 (stereo in doubt) [Example 2, 4-[3-(2-{4-[2,6-Difluoro-4-(3-guanidino-1-methyl-3-oxopropenyl)phenoxy]phenyl}acetylamino)-7,12-dihydroxy-10,13-dimethylhexadecahydrocyclopenta[a]phenanthren-17-yl]pentanoic acid]	10	190 °C (dec.)
C[C@H](CCC(=O)O)[C@H]1CC[C@H]2[C@@H]3[C@H](O)C[C@@H]4C[C@@H](OCCNC(=O)c5cccc(-c6ccc(C(=O)N=C(N)N)cc6)c5)CC[C@]4(C)[C@H]3C[C@H](O)[C@]12C (stereo in doubt) [Example 3, 4-(3-{2-[(4′-Guanidinocarbonylbiphenyl-3-carbonyl)amino]ethoxy}-7,12-dihydroxy-10,13-dimethylhexadecahydrocyclopenta[a]phenanthren-17-yl)pentanoic acid]	65	

— patent US6451781B1, “Substituted acylguanidines, process for their preparation, their use as medicaments or diagnostics, and medicaments comprising them” (Aventis Pharma Deutschland GmbH, priority 1999, dated 2002)
